The values below come from publication PMC9960274, “Peptidic Inhibitors and a Fluorescent Probe for the Selective Inhibition and Labelling of Factor XIIIa Transglutaminase” (Molecules, 2023).

“Also recorded” adds a separate entry of the source. Like-named read-outs stand apart in the source and are kept apart here. Starred links: 1 amine or outer side, 2 acyl side, 3 side chain; linkers in the order of their positions; H or OH if unused. Non-standard residues stand in square brackets, D forms with d. Residues, ends and D or L forms follow the SMILES beside them. *: point of attachment. RhodamineB = CCN(CC)c1ccc2c(-c3ccccc3C(=O)*)c3ccc(=[N+](CC)CC)cc-3oc2c1; X1 = COC(=O)/C=C/CC[C@H](N[*:1])C(=O)[*:2]; X2 = COC(=O)C=CCCC[C@H](N[*:1])C(=O)[*:2]; X3 = COC(=O)C=CC[C@H](N[*:1])C(=O)[*:2]; Nle = CCCC[C@H](N)C(=O)O; Orn = NCCC[C@H](N)C(=O)O; Dab = NCC[C@H](N)C(=O)O; Acryloyl = C=CC(=O)*; Ahx = NCCCCCC(=O)O

In the assay the target is T1, Thrombin-activated human FXIIIa (Homo sapiens, UniProt P00488).
T1 construct: purchased Zedira GmbH T070
T1 sequence (P00488 39-732 limits assumed): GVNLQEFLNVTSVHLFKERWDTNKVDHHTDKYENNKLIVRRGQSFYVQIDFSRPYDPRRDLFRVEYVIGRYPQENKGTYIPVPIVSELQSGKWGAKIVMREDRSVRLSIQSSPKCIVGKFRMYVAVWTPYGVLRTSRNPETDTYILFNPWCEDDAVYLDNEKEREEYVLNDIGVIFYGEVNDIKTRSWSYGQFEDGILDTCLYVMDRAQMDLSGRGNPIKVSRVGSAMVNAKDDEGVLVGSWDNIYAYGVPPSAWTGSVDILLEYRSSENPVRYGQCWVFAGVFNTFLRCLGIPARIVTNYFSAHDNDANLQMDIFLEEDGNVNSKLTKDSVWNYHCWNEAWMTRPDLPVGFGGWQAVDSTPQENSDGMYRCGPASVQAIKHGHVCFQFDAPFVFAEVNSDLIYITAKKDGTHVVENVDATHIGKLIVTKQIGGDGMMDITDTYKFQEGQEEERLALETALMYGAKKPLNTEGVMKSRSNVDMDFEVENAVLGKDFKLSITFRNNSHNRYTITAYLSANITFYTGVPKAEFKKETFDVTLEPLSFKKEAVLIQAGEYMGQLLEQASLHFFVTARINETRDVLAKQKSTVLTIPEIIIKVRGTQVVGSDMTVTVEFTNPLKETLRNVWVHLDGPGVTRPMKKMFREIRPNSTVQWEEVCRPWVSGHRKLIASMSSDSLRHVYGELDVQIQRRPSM
The experiment in a line: Fluorescence-quenched A101 isopeptidase assay of FXIIIa inhibition kinetics. Type of assay: biochemical. The conditions noted are these: for FXIIIa Inh. Mode: Rev = reversible, Irrev = irreversible, None = no inhibition detected up to 200 μM; for Selectivity: isozyme favoured, FXIIIa vs TG2, FXIIIa as the favoured isozyme; for selectivity for FXIIIa over TG2: from kinact/KI against FXIIIa and TG2. The protocol: All inhibitors synthesised herein were evaluated for inhibition against FXIIIa, using the fluorescence-quenched A101 isopeptidase assay, and against TG2, using the colorimetric AL5 transamidase assay. The assay substrates A101 and AL5 both present labile bonds that are cleaved by the activities of their corresponding transglutaminases, resulting in the release of a fluorophore or chromophore moiety, respectively. The rate of consumption of these assay substrates, indicated by increases in fluorescence or absorbance over time, can be detected for measuring enzyme activity. Assays were run in duplicate at constant reporter substrate concentration with varying concentrations of inhibitor. The type of inhibition was determined through visual inspection of the fluorescence-time curvature; termination of the enzymatic reaction with the substrate at a plateau lower than the no-inhibitor positive control is indicative of irreversible inhibition. On the other hand, convergence to a common plateau indicates reversible inhibition.
Irreversibility was tested further through substrate spike experiments. As shown in Supplementary Materials Figures S1–S3, an additional substrate was added to inhibited and uninhibited enzyme reactions after the completion of the positive control reaction. […] Analysis was carried out through corrected Dixon modelling in the case of reversible kinetics, to obtain Ki values (Figure 5B), and hyperbolic saturation modelling was used to obtain kinact and KI for inhibitors showing irreversibility (Figure 5E). For cases in which the tested inhibitor concentrations were not high enough to reach saturation, a linear regression provided an estimate of the inhibitor’s kinact/KI ratio (Figure 5D). Further details concerning data collection and analysis are provided in the Materials and Methods section.
A previously reported fluorescence-quenched isopeptidase assay using the commercially available substrate A101 (Zedira GmbH, Darmstadt, Germany) was employed for the determination of FXIIIa inhibition kinetics. All assays were performed at 37 °C on 96-well plates, with fluorescence (excitation at 313 nm, emission at 418 nm) measured continuously using a BioTek Synergy 4 plate reader. For each inhibitor, duplicate trials were run in parallel at 4 inhibitor concentrations, along with duplicate positive controls (no inhibitor) and negative controls (no enzyme and no inhibitor). First, 125 μL of aqueous buffer 1 (111 mM Tris, 16.7 mM CaCl2, 333 mM NaCl, pH 7.5) and 18 μL of aqueous buffer 2 (55.6 mM TCEP, 149 mM H-Gly-OMe, pH 7.5) were added to each well, along with 5 μL of A101 stock solution (4000 μM in DMSO). Next, the appropriate amount of the desired inhibitor, dissolved in DMSO, was added, in addition to the amount of distilled water necessary to reach a total volume of 180 μL in each well. Negative controls were diluted to a final volume of 200 μL. Thrombin-activated human FXIIIa (T070, Zedira GmbH, Darmstadt, Germany), stored at −80 °C in 20-μL aliquots (1 mg/mL enzyme) of storage buffer (50.0 mM Tris, 1.00 mM TCEP, 150 mM NaCl, pH 7.5) was warmed to room temperature and diluted to 0.0741 mg/mL through the addition of 250 μL of storage buffer. The diluted enzyme solution was then aliquoted into 10 separate PCR tubes. The assay plate and enzyme tubes were subsequently incubated at 37 °C for 10 min. After the completion of the incubation period, 20 μL of diluted FXIIIa solution was added from each PCR tube to all wells in the plate excluding the negative controls using a multi-channel pipette. This produced a final volume of 200 μL per well, with final reaction conditions of pH 7.5, 74.4 mM Tris, 10.4 mM CaCl2, 223 mM NaCl, 5.10 mM TCEP, 13.4 mM H-Gly-OMe, 100 μM A101, and 7.41 μg/mL (94 nM) FXIIIa. The range of inhibitor concentrations tested spanned from 1 to 200 μM, and the final DMSO concentration in the reaction mixture was kept below 10% v/v. […]

[1] abbreviates: peptidic series, corrected Dixon plot, α = 13.5, read-out: FXIIIa Ki or KI: Ki of reversible inhibitors.
Where [2] appears, read: small molecule series, reversible, Dixon plot, Interference = data afflicted by fluorescence interference.
Setting [3] is: small molecule series, reversible, Dixon plot, Interference = data afflicted by fluorescence interference, read-out: FXIIIa Ki.
[4] abbreviates: dansyl and sulfonyl-naphthalene compounds, data afflicted by fluorescence interference and set aside, read-out: FXIIIa apparent Ki (interference).

On to `C=CC(=O)NCC[C@H](NC(=O)[C@@H](CC(=O)O)NC(C)=O)C(=O)N[C@@H](CCCC)C(=O)N[C@@H](CCCC)C(=O)N[C@@H](CC(C)C)C(=O)N1CCC[C@H]1C(=O)N[C@@H](Cc1c[nH]c2ccccc12)C(=O)N1CCC[C@H]1C(=O)O` [Compound 12, Ac-D-Asp-Dab(Acrylamide)-Nle-Nle-Leu-Pro-Trp-Pro-OH] (Ac-[dD][Dab](Acryloyl)[Nle][Nle]LPWP-OH), for which the “FXIIIa Inh. Mode” value was “Rev” and the Selectivity result is given as “FXIIIa”. Further, under setting [1], the Ki turned out to be 193 ± 20 µM. The matching figures for `C=CC(=O)NCCC[C@H](NC(=O)[C@@H](CC(=O)O)NC(C)=O)C(=O)N[C@@H](CCCC)C(=O)N[C@@H](CCCC)C(=O)N[C@@H](CC(C)C)C(=O)N1CCC[C@H]1C(=O)N[C@@H](Cc1c[nH]c2ccccc12)C(=O)N1CCC[C@H]1C(=O)O` [Compound 13] (Ac-[dD][Orn](Acryloyl)[Nle][Nle]LPWP-OH): “Rev”, “FXIIIa” and 135 ± 16 µM. As for `C=CC(=O)NCCCC[C@H](NC(=O)[C@@H](CC(=O)O)NC(C)=O)C(=O)N[C@@H](CCCC)C(=O)N[C@@H](CCCC)C(=O)N[C@@H](CC(C)C)C(=O)N1CCC[C@H]1C(=O)N[C@@H](Cc1c[nH]c2ccccc12)C(=O)N1CCC[C@H]1C(=O)O` [Compound 14] (Ac-[dD]K(Acryloyl)[Nle][Nle]LPWP-OH), the “FXIIIa Inh. Mode” value is listed as “Rev” and the Selectivity result was “FXIIIa”. The Ki under setting [1] stood at 125 ± 20 µM. Consider `CCCC[C@H](NC(=O)[C@H](CC=CC(=O)OC)NC(=O)[C@@H](CC(=O)O)NC(C)=O)C(=O)N[C@@H](CCCC)C(=O)N[C@@H](CC(C)C)C(=O)N1CCC[C@H]1C(=O)N[C@@H](Cc1c[nH]c2ccccc12)C(=O)N1CCC[C@H]1C(=O)O` [Compound 45] (Ac-[dD][X3][Nle][Nle]LPWP-OH), for which the “FXIIIa Inh. Mode” value was “weak reversible inhibition and Rev”; the Selectivity result is reported as “FXIIIa”. In addition, under setting [1], the Ki was determined as 53 ± 12 µM.

Regarding `CCCC[C@H](NC(=O)[C@H](CCCC=CC(=O)OC)NC(=O)[C@@H](CC(=O)O)NC(C)=O)C(=O)N[C@@H](CCCC)C(=O)N[C@@H](CC(C)C)C(=O)N1CCC[C@H]1C(=O)N[C@@H](Cc1c[nH]c2ccccc12)C(=O)N1CCC[C@H]1C(=O)O` [Compound 47] (Ac-[dD][X2][Nle][Nle]LPWP-OH), the “FXIIIa Inh. Mode” value is “reversible and highly potent reversible FXIIIa inhibition and Rev”; the Selectivity entry was “Irrev TG2”. The Ki under setting [1] was 0.0941 ± 0.0105 µM. With `C=CC(=O)NCC(NC(=O)CC(=O)O)C(=O)N1CCN(S(=O)(=O)c2cccc3c(N(C)C)cccc23)CC1` (centres unmarked) [Compound 71], under setting [2], the “FXIIIa Ki” value is on record as “Interference *”. `C=CC(=O)NCC(NC(=O)CC(=O)O)C(=O)N1CCN(C(=O)c2cccc3ccccc23)CC1` (centres unmarked) [Compound 72]: the Ki under setting [3] came to 249 ± 69.3 µM.

In the case of `C=CC(=O)NCC(NC(=O)C1(C(=O)OC)CC1)C(=O)N1CCN(S(=O)(=O)c2cccc3c(N(C)C)cccc23)CC1` (centres unmarked) [Compound 73], under setting [2], the “FXIIIa Ki” value is reported as “Interference *”.

As to `C=CC(=O)NCC(NC(=O)C1(C(=O)O)CC1)C(=O)N1CCN(S(=O)(=O)c2cccc3c(N(C)C)cccc23)CC1` [Compound 74, Acid-Cyclopropyl-L-Dap(Acryl)-Piperazine-Dansyl], the “FXIIIa Ki” value under setting [2] is given as “Interference *”. Regarding `C=CC(=O)NCC(NC(=O)CCC(=O)O)C(=O)N1CCN(S(=O)(=O)c2cccc3c(N(C)C)cccc23)CC1` [Compound 75, Succinyl-L-Dap(Acryl)-Piperazine-Dansyl], under setting [2], the “FXIIIa Ki” value is “Interference *”.

On to `C=CC(=O)NCC(NC(=O)CCC(=O)O)C(=O)N1CCN(S(=O)(=O)c2cccc3ccccc23)CC1` [Compound 76, Succinyl-L-Dap(Acryl)-Piperazine-Sulfonyl-Naphthalene], for which the Ki under setting [4] amounted to 64.3 ± 5.1 µM. For the same molecule, the “FXIIIa Ki” value under setting [2] is reported as “Interference *”.

In the case of `C=CC(=O)NCC(NC(=O)CCC(=O)O)C(=O)N1CCN(C(=O)c2cccc3ccccc23)CC1` [Compound 77, Succinyl-L-Dap(Acryl)-Piperazine-Naphthoyl], under setting [3], the Ki is 69 ± 4.1 µM. Turning to `C=CC(=O)NCC(NS(=O)(=O)CC(=O)O)C(=O)N1CCN(S(=O)(=O)c2cccc3c(N(C)C)cccc23)CC1` (centres unmarked) [Compound 79], the Ki under setting [4] turned out to be 26.7 ± 1.3 µM. The “FXIIIa Ki” value under setting [2] is recorded as “Interference *”. For `C=CC(=O)NC(CNC(=O)CCC(=O)O)C(=O)N1CCN(C(=O)c2cccc3ccccc23)CC1` (centres unmarked) [Compound 84], under setting [3], the Ki is 108 ± 19.1 µM.

For `COC(=O)C=CCCC(NC(=O)CCC(=O)O)C(=O)N1CCN(C(=O)c2cccc3ccccc23)CC1` (centres unmarked) [Compound 87], the Ki under setting [3] was found to be 131 µM.

In the case of `COC(=O)C=CCCC(NC(=O)c1ccccc1C(=O)O)C(=O)N1CCN(C(=O)c2cccc3ccccc23)CC1` (centres unmarked) [Compound 88], the Ki under setting [3] stood at 265 ± 46.8 µM.

As usually defined, the kinact/KI is the second-order rate constant of inactivation. For the molecule `CCCC[C@H](NC(=O)[C@H](CC/C=C/C(=O)OC)NC(=O)[C@@H](CC(=O)O)NC(=O)CCCCCNC(=O)[C@@H]1CCCN1C(=O)c1ccccc1-c1c2ccc(=[N+](CC)CC)cc-2oc2cc(N(CC)CC)ccc12)C(=O)N[C@@H](CCCC)C(=O)N[C@@H](CC(C)C)C(=O)N1CCC[C@H]1C(=O)N[C@@H](Cc1c[nH]c2ccccc12)C(=O)N1CCC[C@H]1C(=O)O` [Compound 93] (RhodamineB-P[Ahx][dD][X1][Nle][Nle]LPWP-OH), the “selectivity for FXIIIa over TG2” value is “around 6.5 fold”. In addition, under “listed as KM93”, the “selectivity for FXIIIa over TG2” value is 6.5 fold. Besides, the kinact/KI (irreversible inhibitors, saturation fit or linear regression) was 2120 M⁻¹ s⁻¹. In the case of “Ac-D-Asp-Dap(Acrylamide)-Nle-Nle-Leu-Pro-Trp-Pro-OH [Compound 11]”, the “FXIIIa Inh. Mode” value is “complete loss of inhibition; also recorded: no inhibition; also recorded: None *”.
